In ChEMBL document CHEMBL4184250, “Structure-activity studies of a macrocyclic peptide inhibitor of histone lysine demethylase 4A” (Bioorg Med Chem, 2018):
The source made the active and inactive calls. The calls are words filed in the database; no cut-off is given here. Where a SMILES comes first, the peptide text is derived from it. Bridges are numbered along the chain shown (N, C = ends).

Key:
[1] = Drug uptake in human MCF7 cells assessed as cell area stained at 10 uM after 3 hrs by Hoechst 33342 staining based confocal microscopic analysis; format: ADME; conditions: mcf7, 3 h
[2] = molecular target: T1, Lysine-specific demethylase 4A (Homo sapiens, UniProt O75164); test: Inhibition of KDM4A (unknown origin) expressed in Escherichia coli using biotinylated peptide as substrate pretreated for 15 mins followed by substrate addition by Alphascreen assay
T1 sequence (O75164 whole entry): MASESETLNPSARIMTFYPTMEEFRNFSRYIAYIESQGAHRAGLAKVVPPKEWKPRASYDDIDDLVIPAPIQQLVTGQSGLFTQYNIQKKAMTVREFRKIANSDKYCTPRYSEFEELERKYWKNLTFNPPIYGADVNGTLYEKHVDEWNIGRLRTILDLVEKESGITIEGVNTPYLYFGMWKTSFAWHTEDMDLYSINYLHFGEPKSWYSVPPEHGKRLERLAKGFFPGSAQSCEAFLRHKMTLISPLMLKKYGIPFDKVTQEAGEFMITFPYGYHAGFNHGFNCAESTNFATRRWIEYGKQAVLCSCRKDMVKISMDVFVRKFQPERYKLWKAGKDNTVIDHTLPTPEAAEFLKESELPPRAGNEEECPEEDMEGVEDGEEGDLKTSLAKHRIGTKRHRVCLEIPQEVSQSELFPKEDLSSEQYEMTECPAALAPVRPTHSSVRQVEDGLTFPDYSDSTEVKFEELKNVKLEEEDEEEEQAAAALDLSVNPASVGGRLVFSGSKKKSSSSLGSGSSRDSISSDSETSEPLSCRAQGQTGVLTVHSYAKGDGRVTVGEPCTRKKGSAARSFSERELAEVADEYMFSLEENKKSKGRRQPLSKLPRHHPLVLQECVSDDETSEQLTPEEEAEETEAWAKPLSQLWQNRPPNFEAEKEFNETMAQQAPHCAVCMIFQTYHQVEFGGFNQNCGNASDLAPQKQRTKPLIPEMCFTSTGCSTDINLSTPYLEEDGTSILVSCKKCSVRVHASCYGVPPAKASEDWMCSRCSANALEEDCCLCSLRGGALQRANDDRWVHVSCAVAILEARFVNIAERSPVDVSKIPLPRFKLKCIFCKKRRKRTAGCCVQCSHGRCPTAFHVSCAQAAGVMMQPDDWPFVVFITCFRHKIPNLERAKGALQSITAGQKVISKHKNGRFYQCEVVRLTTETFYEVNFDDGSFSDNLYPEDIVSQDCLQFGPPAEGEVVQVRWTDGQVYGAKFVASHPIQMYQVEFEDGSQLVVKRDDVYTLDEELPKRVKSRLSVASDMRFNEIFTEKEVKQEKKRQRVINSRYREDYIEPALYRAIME

[3] = molecular target: T2, Lysine-specific demethylase 4C (Homo sapiens, UniProt Q9H3R0); test: Inhibition of KDM4C (unknown origin) expressed in Escherichia coli using biotinylated peptide as substrate pretreated for 15 mins followed by substrate addition by Alphascreen assay
T2 sequence (Q9H3R0 whole entry): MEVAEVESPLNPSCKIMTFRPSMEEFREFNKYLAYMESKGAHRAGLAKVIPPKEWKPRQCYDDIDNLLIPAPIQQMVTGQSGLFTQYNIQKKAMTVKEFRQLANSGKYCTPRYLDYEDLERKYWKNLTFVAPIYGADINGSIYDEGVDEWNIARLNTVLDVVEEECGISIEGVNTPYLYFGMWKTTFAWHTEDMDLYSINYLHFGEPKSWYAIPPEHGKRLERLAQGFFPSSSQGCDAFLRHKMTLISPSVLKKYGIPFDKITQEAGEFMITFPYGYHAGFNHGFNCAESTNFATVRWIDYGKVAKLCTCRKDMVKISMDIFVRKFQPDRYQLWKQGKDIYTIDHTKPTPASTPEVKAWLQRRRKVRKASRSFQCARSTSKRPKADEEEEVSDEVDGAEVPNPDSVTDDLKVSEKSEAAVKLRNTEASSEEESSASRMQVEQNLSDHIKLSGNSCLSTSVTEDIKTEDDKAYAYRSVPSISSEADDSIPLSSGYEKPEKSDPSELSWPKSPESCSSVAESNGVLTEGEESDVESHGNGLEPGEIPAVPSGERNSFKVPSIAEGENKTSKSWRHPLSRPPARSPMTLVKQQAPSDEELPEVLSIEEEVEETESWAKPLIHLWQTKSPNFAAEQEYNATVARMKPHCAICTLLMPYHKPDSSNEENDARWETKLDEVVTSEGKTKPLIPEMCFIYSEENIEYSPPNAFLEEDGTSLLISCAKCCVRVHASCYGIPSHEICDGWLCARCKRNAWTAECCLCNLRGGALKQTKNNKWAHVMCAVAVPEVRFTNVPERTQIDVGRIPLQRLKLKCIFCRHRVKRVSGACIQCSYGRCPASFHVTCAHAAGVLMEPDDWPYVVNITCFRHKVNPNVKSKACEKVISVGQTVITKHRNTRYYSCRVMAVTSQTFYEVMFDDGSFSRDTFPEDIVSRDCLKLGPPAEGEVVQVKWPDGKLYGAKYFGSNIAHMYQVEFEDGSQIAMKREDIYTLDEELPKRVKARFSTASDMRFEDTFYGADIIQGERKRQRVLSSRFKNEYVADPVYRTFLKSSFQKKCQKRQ

[4] = molecular target: T1, Lysine-specific demethylase 4A; test: Stabilization of FLAG-tagged KDM4A (1 to 1064 residues) (unknown origin) expressed in human U2OS cells measured after 3 hrs by CETSA; format: cell-based
[5] = molecular target: T1, Lysine-specific demethylase 4A; test: Binding affinity to N-terminal His6-tagged KDM4A (1 to 359 residues) (unknown origin) expressed in Escherichia coli BL21(DE3) Rosetta by bio-layer interferometric method; conditions: read-out: Kd(app)
[6] = molecular target: T1, Lysine-specific demethylase 4A; test: (§1) Binding affinity to biotinylated-KDM4A (unknown origin) at 300 nM by bio-layer interferometric method; conditions: read-out: Kd(app)
[7] = test system: HeLa; test: Cytotoxicity against human HeLa cells expressing FLAG-tagged KDM4A assessed as reduction in cell numbers at >5 uM after 24 hrs by DAPI staining based immunofluorescence assay
[8] = molecular target: T1, Lysine-specific demethylase 4A; test: Inhibition of full length FLAG-tagged KDM4A (unknown origin) expressed in human HeLa cells assessed as increase in H3K9me3 levels after 24 hrs by DAPI staining based immunofluorescence assay; format: cell-based
[9] = test system: HeLa; test: Cytotoxicity against human HeLa cells expressing FLAG-tagged KDM4A assessed as condensed nucleus at 50 uM after 24 hrs by DAPI staining based immunofluorescence assay; format: cell-based
[10] = molecular target: T3, Lysine-specific demethylase 4A (Homo sapiens) (UniProt O75164); test: as §1
T3 sequence (whole entry): T1 sequence (O75164 whole entry)

[11] = molecular target: T3, Lysine-specific demethylase 4A (Homo sapiens); test: Inhibition of full length FLAG-tagged KDM4A (unknown origin) expressed in human HeLa cells assessed as increase in H3K9me3 levels at >20 uM after 24 hrs by DAPI staining based immunofluorescence assay; format: cell-based
[12] = Drug localization in lysosomes of human MCF7 cells at 10 uM after 3 hrs by Lysotracker red DND-99 staining based confocal microscopic analysis; format: ADME, subcellular, Lysosome; conditions: mcf7, 3 h

SMILES | Drug uptake [1] [%] | IC50 [2] [nM] | IC50 [3] [nM] | EC50 [4] [nM] | Kd [5] [nM] | Kd [6] [nM] | EC50 [8] [nM] | Kd(app) [10] | inhibition [11] | Drug uptake [12] | Activity [7] | Activity [9]
CC[C@H](C)[C@@H]1NC(=O)CNC(=O)[C@H](CO)NC(=O)[C@H](CCCNC(=N)N)NC(=O)[C@H](CCCNC(=N)N)NC(=O)[C@H](Cc2ccccc2)NC(=O)[C@H](CCCNC(=N)N)NC(=O)[C@H]([C@@H](C)O)NC(=O)[C@@H](Cc2ccc(O)cc2)NC(=O)CSC[C@@H](C(N)=O)NC(=O)[C@H](Cc2ccc(O)cc2)NC(=O)[C@H](Cc2ccc(O)cc2)NC(=O)[C@H](Cc2ccccc2)NC(=O)[C@H](C(C)C)NC1=O | 13.4 |  |  |  |  | 2.6 | > 50000 |  |  |  | Toxic | Toxic
CC[C@H](C)[C@@H]1NC(=O)[C@H](CCCNC(=N)N)NC(=O)[C@H]([C@@H](C)CC)N(C)C(=O)[C@H](Cc2ccc(O)cc2)NC(=O)CSC[C@@H](C(N)=O)N(C)C(=O)[C@H](Cc2c[nH]c3ccccc23)NC(=O)[C@H](CC(C)C)NC(=O)[C@H](Cc2c[nH]c3ccccc23)NC(=O)[C@@H](C)NC(=O)[C@H](CO)NC(=O)[C@H](CCCNC(=N)N)NC(=O)[C@H](CCCNC(=N)N)NC1=O | 7.4 | 17 | 27 |  |  | 23 | > 50000 |  | Active |  |  | 
CC[C@H](C)[C@@H]1NC(=O)CNC(=O)[C@H](CO)NC(=O)[C@H](CCCNC(=N)N)NC(=O)[C@H](CCCNC(=N)N)NC(=O)[C@H](Cc2ccccc2)NC(=O)[C@H](CCCNC(=N)N)NC(=O)[C@H]([C@H](C)O)NC(=O)[C@@H](Cc2ccc(O)cc2)NC(=O)CSC[C@@H](C(N)=O)NC(=O)[C@H](Cc2ccc(O)cc2)NC(=O)[C@H](Cc2ccc(O)cc2)NC(=O)[C@H](Cc2ccccc2)NC(=O)[C@H](C(C)C)NC1=O |  |  |  |  |  |  |  |  | Active |  |  | 
CC[C@H](C)[C@@H]1NC(=O)[C@H](CCCNC(=N)N)NC(=O)[C@H]([C@@H](C)CC)NC(=O)[C@H](Cc2ccc(O)cc2)NC(=O)CSC[C@@H](C(N)=O)NC(=O)[C@H](Cc2c[nH]c3ccccc23)NC(=O)[C@H](CC(C)C)NC(=O)[C@H](Cc2c[nH]c3ccccc23)NC(=O)CNC(=O)[C@H](CO)NC(=O)[C@H](CCCNC(=N)N)NC(=O)[C@H](CCCNC(=N)N)NC1=O ({CH2CO}-YIRIRRSGWLWC-NH2; thioether N-12) | 65.3 | 23 | 23 |  |  | 42 | > 50000 |  |  | Active |  | 

Continued by falling IC50 [2], values first:

Drug uptake [1] [%] | IC50 [2] [nM] | IC50 [3] [nM] | EC50 [4] [nM] | Kd [5] [nM] | Kd [6] [nM] | EC50 [8] [nM] | Kd(app) [10] | inhibition [11] | Drug uptake [12] | SMILES | Activity [7] | Activity [9]
76.8 | 615 | 466 |  |  | > 300 | > 50000 |  |  | Active | CC[C@H](C)[C@@H]1NC(=O)CNC(=O)[C@H](CO)NC(=O)[C@H](CCCNC(=N)N)NC(=O)[C@H](CCCNC(=N)N)NC(=O)[C@H]([C@@H](C)CC)NC(=O)[C@H](CCCNC(=N)N)NC(=O)[C@@H]2CCCN2C(=O)[C@H](Cc2ccc(O)cc2)NC(=O)CSC[C@@H](C(N)=O)NC(=O)[C@H](Cc2c[nH]c3ccccc23)NC(=O)[C@H](CCCNC(=N)N)NC1=O ({CH2CO}-YPRIRRSGIRWC-NH2; thioether N-12) |  | 
1.2 | 269 | 65 |  |  |  | > 50000 | inactive |  |  | CC[C@H](C)[C@@H]1NC(=O)[C@H](CCCNC(=N)N)NC(=O)[C@@H]2CCCN2C(=O)[C@H](Cc2ccc(O)cc2)NC(=O)CSC[C@@H](C(N)=O)N(C)C(=O)[C@H](Cc2c[nH]c3ccccc23)NC(=O)[C@H](CCCNC(=N)N)NC(=O)[C@H]([C@@H](C)CC)NC(=O)[C@@H](C)NC(=O)[C@H](CO)NC(=O)[C@H](CCCNC(=N)N)NC(=O)[C@H](CCCNC(=N)N)NC1=O |  | 
17.4 | 41 | 46 | > 100000 | 29.8 |  |  |  |  |  | CC(C)[C@@H]1NC(=O)[C@@H](Cc2ccc(O)cc2)NC(=O)CSC[C@@H](C(N)=O)NC(=O)[C@H](Cc2c[nH]c3ccccc23)NC(=O)[C@H](Cc2ccc(O)cc2)NC(=O)[C@H](Cc2c[nH]c3ccccc23)NC(=O)[C@H](CCCNC(=N)N)NC(=O)[C@H](Cc2c[nH]c3ccccc23)NC(=O)CNC(=O)[C@H](CO)NC(=O)[C@H](CCCNC(=N)N)NC(=O)[C@H]([C@@H](C)O)NC(=O)[C@H](CC(N)=O)NC(=O)[C@H](Cc2ccc(O)cc2)NC1=O |  | 
